Here are results for two compounds from patent US8304442B2, “Compounds having immunomodulator activity” (Ganial Immunotherapeutics, Inc., priority 2005, dated 2012).

One test relates to MLD-STZ induced diabetes. Put plainly: Diabetes induced by multiple low doses of streptozotocin. In kind it is in vivo, CBA/H mice. As to conditions: prophylactic. The text has this:
Both i.p and p.o. treatment with GIT27 suppressed clinical development of diabetes that is induced in CBA/H mice by multiple low doses of streptozotocin. CBA/H mice developed sustained hyperglycaemia over a 2-week period following MLD-STZ injections. As expected, CBA/H control mice treated with the vehicle of GIT27 either i.p. or p.o. develop diabetes with sustained hyperglycaemia developed over a 2-week period following MLD-STZ injections.

The subject of test [1] is oxazolone-induced hypersensitivity. Put plainly: Oxazolone-induced dermatitis. In kind it is in vivo, mice.
Experimental: While the first application of oxazolone sensitizes the mice, the second elicits the hypersensitivity reaction. The dermatitis manifestations appear 18 hours after the second epicutaneous exposure to oxazolone, both ear thickness and weight markedly and progressively increase. The in vivo studies to assess the pharmacological activity of GIT27, were planned with two set of experimental. In the first set, the mice were treated during or before the sensitization phase. […] To evaluate the effects of GIT27 on the elicitation phase of oxazolone-induced dermatitis, the treatment with GIT27 was given one hour after the second epicutancous exposure to oxazolone, when start the progression of the immunoinflammatory responses.
A further test has as its system CAR-induced pleurisy. The test can be described thus: Carrageenan (CAR) induced pleurisy. As to conditions: prophylactic treatment. In kind it is in vivo, mice. An excerpt:
GIT27 powerfully suppresses CAR-induced pleurisy in mice All the mice that were challenged with CAR and left untreated or treated with the vehicle of GIT27 developed an acute pleurisy, with production of turbid exudate, PMNs infiltration, and myeloperoxidase (MPO) activity accumulation in the lung.

The next test has as its system NF-kB. The test can be described thus: LPS-induced NF-kB DNA binding in monocyte-derived human macrophages. In kind it is cell-based.
Test [2] concerns Peritoneal macrophages (PM). The test can be described thus: In vitro cytokine synthesis by LPS-stimulated peritoneal macrophages. In kind it is cell-based, mice. As for the experimental part: (§1) Peritoneal macrophages (PM) and splenic mononuclear cells (SMNC) were isolated from normal mice, were cultured in nutrient medium and stimulated with LPS and/or ConA, respectively in the absence or presence of GIT27. […] GIT27 had no effect on MIF expression in either cell type, on proliferation of SMNC, and on IL-10 and Interferon (IFN) gamma production by SMNC.

The next test has as its system DNB-induced colitis. Put plainly: DNB-induced colitis. In kind it is in vivo, mice. As for the experimental part: Within 5 days after challenge with dinitrobenzene sulfonic acid (DNB), mice develop colitis. The disease severity is evaluated based on a macroscopic score. The vehicle-treated control mice and untreated mice developed colitis with a predictable and progressive increase in inflammation and body weight loss. […] The colons of the control mice and of the GIT27 treated mice were removed, sectioned, fixed, and stained with hematoxylin and eosin. […] The tissue myeloperoxidase activity is a well established marker to assess the inflammatory cell (mainly neutrophils) infiltration. […] We counted an average of 8,9±1.2 (means±SD) cells/high power field in the of DNB-induced animals, whereas there were only 3.37±0.8 cells/high-power field in DNB-induced animals pretreated with GIT27 (p<0.0001).

In test [3] the test system is splenic mononuclear cells (SMNC). The test can be described thus: Ex vivo proliferation and cytokine synthesis of SMNC isolated from GIT27 treated mice. The class given is in vivo. As to conditions: mice treated 7 days i.p. 0.5 mg/mouse or p.o. 2.5 mg/mouse. As for the experimental part:
(§2) These experiments were carried out to explore if intraperitoneal (i.p.) or per os (p.o.) treatment of mice with GIT27 could influence the proliferative response of SMNC and the production of IL-1β, IL-10, TNF-α, IFN-γ and MIF from isolated PM and SMNC. PM and SMNC isolated from mice treated in vivo with GIT27 for 7 consecutive days i.p. (0.5 mg/mouse), or p.o. (2.5 mg/mouse), or isolated from control animals that received GIT27 vehicle (Na2HPO4/H2O), or were without any treatment. 24 h after the last GIT27 treatment, PM and SMNC were collected for further in vitro stimulation and analysis.

In another test the test system is LPS-induced lethality. Put plainly: LPS-induced lethality in vivo. The arrangement: species or system mice. The conditions noted are these: for protection from LPS-induced lethality: therapeutic. On the procedure: As expected, most of the control mice either untreated or that received the vehicle of GIT27 succumbed to LPS-challenge within 3 days. […] In contrast, the treatment with GIT27 given either po or ip protect the mice from the lethal effects of LPS in a dose-dependent fashion. When given p.o., GIT27 was effective at the dose of 2.5 mg/mouse and dosed out both at 1.5 and 3 mg/mouse.

Test [4] deals with Peritoneal macrophages (PM). Put plainly: Ex vivo cytokine synthesis of PM isolated from GIT27 treated mice. In kind it is in vivo. As to conditions: mice treated 7 days i.p. 0.5 mg/mouse or p.o. 2.5 mg/mouse. On the procedure:
as §2

In test [5] the test system is splenic mononuclear cells (SMNC). Put plainly: In vitro proliferation and cytokine synthesis by ConA-stimulated splenic mononuclear cells. The class given is cell-based, mice. On the procedure:
as §1

The subject of the next test is type II CIA. The test can be described thus: Type II collagen-induced arthritis (CIA). The conditions noted are these: therapeutic. The class given is in vivo, mice. On the procedure: To evaluate the therapeutic effect of GIT27 in arthritis, mice developing type II CIA were treated for 10 consecutive days. […] Control mice were treated under the same experimental regime with the vehicle of GIT27.
The vehicle-treated control mice rapidly develop full clinical signs of type II CIA with a progressive increment of the arthritic clinical scores and severe hind paws oedema. This clinical picture was reflected by severe inflammatory arthritis as indicated by the high the progressive increment of the arthritic histological scores determinated by histological evaluation.

A further test concerns IL-10. The conditions noted are these: J. Exp Med.; cited from earlier work.
Where [6] appears, read: treated during or before the sensitization phase.
Where [7] appears, read: 10 consecutive days from clinical score ≧1, vs vehicle.

Turning to `O=C(O)CC1CC(c2ccccc2)=NO1` (centres unmarked) [GIT27, 3-phenyl-4,5-dihydro-5-isoxazoleacetic acid], the “diabetogenic effect of MLD-STZ (hyperglycaemia)” value with MLD-STZ induced diabetes (i.p.) is reported as “significantly reduced”. Also, the development of hyperglycaemia entry in the test with MLD-STZ induced diabetes (p.o.) is “significantly reducing”. Moreover, the ear thickness entry in test [1] (elicitation phase: treated one hour after second exposure to oxazolone) is listed as “significant decrease”. In addition, in [1] (setting [6]), the “increment of ear thickness” value was “significantly suppressed” and the “increment of ear weight” value was “significantly suppressed”. Besides, in the test on CAR-induced pleurisy, the PMNs infiltration result is recorded as “reduced”, the “myeloperoxidase (MPO) activity accumulation in the lung” value was “reduced” and the production of exudate result is recorded as “reduced”. In the test on CAR-induced pleurisy (comparable to antibody against mouse TNF-alpha), the “overall effect on CAR-induced pleurisy” value was “powerful protective effect”. In addition, in the test with NF-kB, the “DNA binding of NF-kB induced by LPS” value was “powerfully inhibits in a dose-dependent fashion”. Also, the “MIF expression in PM” value in test [2] is given as “no effect”. Further, in test [2] (LPS stimulated), the “production of IL-1β by PM” value is “inhibited”, the “production of IL-10 by PM” value is listed as “inhibited” and the “production of TNF α by PM” value is reported as “markedly inhibited”. The “inflammatory cell infiltration (colon myeloperoxidase activity)” value with DNB-induced colitis (5 days after induction of colitis, p<0.0001) is listed as “significant reduction”. The “infiltrating neutrophils in histology samples” value in the test on DNB-induced colitis (means±SD, DNB-induced animals pretreated, p<0.0001) came out at 3.37±0.8 cells/high-power field. Further, the “tissue damage (colon histology)” value in the test on DNB-induced colitis (treated before DNB-induced colitis, vs control mice) is listed as “significantly reduced”. The weight loss entry in the test with DNB-induced colitis (vs control groups) is given as “significant reduction”. For the same compound, the “increase in colon weight” value with DNB-induced colitis (vs controls) was “significantly lower”. Besides, the “progression of inflammatory colitis (macroscopic score)” value in the test with DNB-induced colitis (vs controls, p<0.001) is recorded as “significantly attenuated”. In test [3], the “IFN-γ production by SMNC upon stimulation” value was “normal capacity to produce”, the “IL-1β production by SMNC upon stimulation” value was “normal capacity to produce”, the “IL-10 production by SMNC upon stimulation” value was “normal capacity to produce” and the “MIF expression by SMNC” value is “normal expression pattern”. Moreover, in test [3], the “TNF-α production by SMNC upon stimulation” value is listed as “normal capacity to produce” and the “proliferation of SMNC” value is on record as “normal capacity to proliferate”. In the test on LPS-induced lethality (i.p., between 0.25 and 0.5 mg/mouse), the “protection from LPS-induced lethality” value is reported as “dose-dependent protection”. Further, the LPS-induced lethality result in the test on LPS-induced lethality (p.o. and i.p., prophylactic regime (-24 and -1 hour prior to LPS)) was “significantly reducing”. The “protection from LPS-induced lethality” value in the test on LPS-induced lethality (p.o., 2.5 mg/mouse) is reported as “effective”. Besides, the “protection from LPS-induced lethality” value with LPS-induced lethality (p.o., 1.5 and 3 mg/mouse) is recorded as “dosed out”. Besides, the LPS-induced lethality entry with LPS-induced lethality (therapeutic administration, overall) is on record as “powerfully counteracts”. In addition, in [4], the “MIF expression by PM upon mitogenic stimulation” value is “normal pattern”, the “synthesis of IL-1β by PM” value was “impaired synthesis”, the “synthesis of IL-10 by PM” value is listed as “impaired synthesis” and the “synthesis of TNF α by PM” value was “impaired synthesis”. For the same compound, the “MIF expression in SMNC” value in [5] was “no effect”. In addition, in test [5] (ConA stimulated), the “IL-10 production by SMNC” value is “no effect”, the “Interferon (IFN) gamma production by SMNC” value was “no effect”, the “production of TNF α by SMNC” value was “markedly inhibited” and the “proliferation of SMNC” value is on record as “no effect”. Further, in the test with type II CIA (setting [7]), the clinical arthritic scores entry is “lower” and the histological arthritic scores result is listed as “lower”. In addition, the “progression of the arthritic disease” value in the test with type II CIA (10 consecutive days, potency comparable to dexamethasone) is “significantly slower progression”.
For Cyclosporin A, the “IL-10 synthesis in vitro” value in the test on IL-10 was “down-regulates”.
